Source: US20080039471A1, “Composition and method to inhibit tissue plasminogen activator (tPA) - potentiated neurotoxicity” (priority 2006, published 2008)

What was measured:
[1] = test system: tPA-potentiated, NMDA-mediated, excitotoxic neuronal death; conditions: cited from earlier work
[2] = test system: embryonic (E18) rat cortical and striatal neurons; experiment: LDH assay, glutamate / tPA insult (Example 1); format: cell-based
Experimental: For this example PAN-811 was dissolved in PEG:EtOH (7:3) to a concentration of 25 mM, and further diluted in neurobasal medium to a final concentration of 2 μM. The control vehicle is 1:12,500 PEG:EtOH (7:3 in BSS).
(§1) A mixed culture of embryonic (E18) rat cortical and striatal neurons was cultured for 22 days in 50% antioxidative (AO) neurobasal medium (made by replacing 50% of the neurobasal culture medium with a medium comprised of neurobasal plus B27 supplement (minus AO, i.e., without the antioxidants vitamin E, vitamin E acetate, 2.5 mg/L superoxide dismutase, 2.5 mg/L catalase, and 1 mg/L glutathione) (from Invitrogen)), and then divided into test groups in accordance with the following scheme: (1) not insulted (control); (2) insulted with 15 μM glutamate; (3) insulted with 20 μg/ml tPA; or (4) insulted with both 15 μM glutamate and 20 μg/ml tPA, for a period of 24 hours. In a further test category, neurons that were to be insulted for 24 hours with the combination of 15 μM glutamate and 20 μg/ml tPA, were divided into groups in which (1) cells were not pre-treated prior to insult; (2) were pretreated overnight with 1:12,500 vehicle (used for PAN-811), or (3) were pre-treated overnight with PAN-811 (in vehicle).
(§2) The lactate dehydrogenase (LDH) assay (Promega) is based on the reduction of NAD by the action of LDH. The resulting reduced NAD (NADH) is utilized in the stoichiometric conversion of a tetrazolium dye. If cell-free aliquots of medium from cultures given different treatments are assayed, then the amount of LDH activity can be used as an indicator of relative cell death as well as a function of membrane integrity. A 50 μl aliquot of culture medium from a well in tested 96-well plate is transferred into a well in unused plate and supplemented with 25 μl of equally-mixed Substrate, Enzyme and Dye Solutions (Sigma). The preparation is incubated at room temperature for 20-30 minutes, and then measured spectrophotometrically at wavelength of 490 nm.

[3] = test system: embryonic (E18) rat cortical and striatal neurons; experiment: MTS (mitochondrial function) assay, glutamate / tPA insult (Example 1); format: cell-based; conditions: 15 μM glutamate, 20 μg/ml tPA, insult 24 hours
Experimental: as §1, with “In a further test category, neurons that were to be insulted for 24 hours with the combination of 15 μM glutamate and 20 μg/ml tPA, were divided into groups in which (1) cells were not pre-treated prior to insult; (2) were pretreated overnight with 1:12,500 vehicle (used for PAN-811), or (3) were pre-treated overnight with PAN-811 (in vehicle).” left out
The 3-(4,5-dimethylthiazol-2-yl)-5-(3-carboxymethoxyphenyl)-2-(4-sulfophenyl)-2H-tetrazolium (MTS) assay (Promega) is routinely used to evaluate mitochondrial function, and reduced readings are correlated with neuronal cell death. The MTS tetrazolium compound is reduced in metabolically active mitochondria into a colored formazan product that is soluble in tissue culture medium, and can be detected via its absorbance 490 nm. […] The absorbance at 490 nm was recorded using a Bio-Rad 96 well plate reader.

[4] = test system: embryonic (E18) rat cortical and striatal neurons; experiment: Morphological changes, glutamate / tPA insult (Example 1); format: cell-based; conditions: 15 μM glutamate, 20 μg/ml tPA, insult 24 hours
Experimental: as §1
The experimental results were evaluated by morphological changes, lactate dehydrogenase (LDH) and MTS (mitochondrial function) analyses.

[5] = test system: embryonic (E18) rat cortical and striatal neurons; experiment: LDH assay, hypoglycemia/hypoxia (H/H) and tPA insult (Example 2); format: cell-based
Experimental: as §2
In this example, PAN-811 was dissolved in PEG:EtOH (7:3) to a concentration of 25 mM, and further diluted in neurobasal medium to final concentrations of 1.25, 2.5, 5 and 10 μM. The control vehicle is 1:10,000 PEG:EtOH (7:3 in BSS).
(§3) A mixed culture of embryonic (E18) rat cortical and striatal neurons was cultured for 13 days in neurobasal medium (Invitrogen), then insulted by hypoglycemia/hypoxia (H/H) conditions for 6 hours, or a combination of H/H and 20 μg/ml tPA. The H/H conditions were 1.2 mM glucose (normally 25 mM in culture medium) and the absence of oxygen for 6 hours. (Following H/H conditions, the cultures were returned to the typical conditions of 25 mM glucose medium and 95% ambient air plus 5% CO2.)
(§4) In a further experiment, cells that were under H/H conditions and also treated with the tPA were divided into groups, which were either co-treated or post-treated (i.e., during or after the 6 hour insult period) with control vehicle or each of PAN-811 at concentrations of 1.25, 2.5, 5 and 10 μM.

[6] = test system: embryonic (E18) rat cortical and striatal neurons; experiment: Morphological changes, H/H and tPA insult (Example 2); format: cell-based
Experimental: as §3, §4
The experimental results were evaluated by morphological changes, and LDH and MTS analyses.

[7] = test system: embryonic (E18) rat cortical and striatal neurons; experiment: MTS assay, H/H and tPA insult (Example 2); format: cell-based; conditions: H/H 6 hours combined with 20 μg/ml tPA
Experimental: The 3-(4,5-dimethylthiazol-2-yl)-5-(3-carboxymethoxyphenyl)-2-(4-sulfophenyl)-2H-tetrazolium (MTS) assay (Promega) is routinely used to evaluate mitochondrial function, and reduced readings are correlated with neuronal cell death. The MTS tetrazolium compound is reduced in metabolically active mitochondria into a colored formazan product that is soluble in tissue culture medium, and can be detected via its absorbance 490 nm. 10 μl of MTS reagent (Promega) are added to each well of the 96 well assay plates containing the samples in 50 μl of culture medium. The plate is then incubated in a humidified, 5% CO2 atmosphere at 37° C. for 1-2 hours until the color is fully developed. The absorbance at 490 nm was recorded using a Bio-Rad 96 well plate reader.
as §3

[8] = single 2-h infusion every 4 weeks, cited from earlier work
[9] = systematic administration (Jiang et al.); cited from earlier work

## Cl.Cl.N=C(N)c1ccc(C=C2CCCCC(=Cc3ccc(C(=N)N)cc3)C2=O)cc1 [tPA-Stop™, 2,7-bis-(4-amidino-benzylidene)-cycloheptan-1-one dihydrochloride]
[1]
  effect on alpha-amino-2,3-dihydro-5-methyl-3-oxo-4-isoxazole propanoic acid or kainate-mediated necrosis: fails to modulate
  effect on tPA-potentiated, NMDA-mediated, excitotoxic neuronal death: effective in reducing

## N[C@@H](CCC(=O)O)C(=O)O [glutamate, reference compound]
[2]; 15 μM glutamate, 20 μg/ml tPA, insult 24 hours
  increase in LDH over the control: 4.4 fold
[3]
  reduction in the MTS reading over the control: 13%
[4]
  morphology of neurons: strong neuronal cell death

## tPA: Recombinant tissue-type plasminogen activator, a thrombolytic-acting drug approved for ischemic stroke
[2]; 20 μg/ml tPA alone, 24 hours
  toxicity to neurons by LDH assay: not toxic
[5]; H/H 6 hours combined with 20 μg/ml tPA
  enhancement in the LDH reading over control: 3.3 fold
[3]
  reduction in the MTS reading over the control: did not cause any reduction
[6]; H/H combined with 20 μg/ml tPA, by 17 hours post-insult
  morphology, neuronal cell death: robust neuronal cell death
[4]
  morphology of neurons: neurons remained healthy
[7]
  decrease of MTS reading: 51%

## NC(=S)N/N=C/c1ncccc1N [PAN-811, 3-aminopyridine-2-carboxaldehyde thiosemicarbazone]
[2]; pre-treated overnight with 2 μM PAN-811, insult 15 μM glutamate and 20 μg/ml tPA, 24 hours
  reduction of LDH reading as compared to no pre-treatment or control vehicle: about 11%
[5]; 1.25 μM PAN-811, H/H and tPA
  neuroprotection (LDH readings): effective in significantly reducing LDH readings
[5]; 5 μM PAN-811 post-insult (H/H and tPA)
  protection (LDH): 51%
[5]; co-treated with 5 μM PAN-811 during H/H and tPA insult
  decrease of LDH reading: 23%
[5]; co-treatment or post-treatment, 1.25, 2.5, 5 and 10 μM, H/H and tPA
  dose dependence of protection: showed a dose response correlation
[6]; co- or post-treatment, 1.25-10 μM PAN-811, H/H and tPA conditions
  neuronal morphology: preserved neuronal morphology
[8]; 46 courses of therapy
  well tolerated dose: up to 105 mg/m^2
[8]; doses up to 105 mg/m^2
  dose limiting toxicity: not identified
[9]
  passage of the BBB: will pass the BBB
